In patent US20150335025A1 (priority 2014, published 2015):

Tested on: Bacillus anthracis Spores
Format: cell-based, Bacillus anthracis (Ames strain)

O=S(=O)([O-])OOS(=O)(=O)[O-].[Na+].[Na+] [Klozur ™, sodium persulfate]
Decontamination effectiveness against B. anthracis, topsoil compared with AZTD: not significantly different | Inactivation of B. anthracis: complete inactivation
